Laboratory results from paper PMC4441267.

Test: CuAAC macrocyclisation of azide/terminal alkyne linear peptidomimetics to 1,4-triazole (CuI 2 eq, DIPEA 3 eq, Ar-degassed), then Boc removal (TMSCl/MeOH GP4; HCl/dioxane GP5 for A13w, J13w)
Details: THF (reflux), 1.2 mM, 66.0 °C, 18.0 h, 2 steps

SMILES: COC(=O)[C@@H]1CCCCNC(=O)[C@H](Cc2ccccc2)n2cc(nn2)CCCC(=O)NCCC[C@H](NC(=O)OC(C)(C)C)C(=O)N1 [Boc-Orn(5-hexynoyl)-Lys(N3-Phe)-OMe]
- ring closure, yield over several steps (from C#CCCCC(=O)NCCC[C@H](NC(=O)OC(C)(C)C)C(=O)N[C@@H](CCCCNC(=O)[C@H](Cc1ccccc1)N=[N+]=[N-])C(=O)OC, 22-membered ring): 99%

SMILES: COC(=O)[C@@H]1CCCCNC(=O)[C@H](Cc2ccccc2)n2cc(nn2)CCCC(=O)Nc2ccc(cc2)C[C@H](NC(=O)OC(C)(C)C)C(=O)N1 [Boc-Phe(4-NH-5-hexynoyl)-Lys(N3-Phe)-OMe]
- ring closure, yield over several steps (from C#CCCCC(=O)Nc1ccc(C[C@H](NC(=O)OC(C)(C)C)C(=O)N[C@@H](CCCCNC(=O)[C@H](Cc2ccccc2)N=[N+]=[N-])C(=O)OC)cc1, 24-membered ring): 11%

SMILES: COC(=O)[C@@H]1CCCCn2cc(nn2)CNC(=O)NCCC[C@H](NC(=O)OC(C)(C)C)C(=O)N1 [Boc-Orn(CONH-propargyl)-Lys(N3)-OMe]
- ring closure, yield over several steps (from C#CCNC(=O)NCCC[C@H](NC(=O)OC(C)(C)C)C(=O)N[C@@H](CCCCN=[N+]=[N-])C(=O)OC, 18-membered ring): 99%

SMILES: COC(=O)[C@@H]1CCCCNC(=O)[C@H](Cc2ccccc2)n2cc(nn2)CNC(=O)NCCC[C@H](NC(=O)OC(C)(C)C)C(=O)N1 [Boc-Orn(CONH-propargyl)-Lys(N3-Phe)-OMe]
- ring closure, yield over several steps (from C#CCNC(=O)NCCC[C@H](NC(=O)OC(C)(C)C)C(=O)N[C@@H](CCCCNC(=O)[C@H](Cc1ccccc1)N=[N+]=[N-])C(=O)OC, 21-membered ring): 87%

SMILES: COC(=O)[C@@H]1CCCCNC(=O)[C@H](Cc2ccccc2)n2cc(nn2)CCCC(=O)NC[C@H](NC(=O)OC(C)(C)C)C(=O)N1 [Boc-Dap(5-hexynoyl)-Lys(N3-Phe)-OMe]
- ring closure, yield over several steps (from C#CCCCC(=O)NC[C@H](NC(=O)OC(C)(C)C)C(=O)N[C@@H](CCCCNC(=O)[C@H](Cc1ccccc1)N=[N+]=[N-])C(=O)OC, 20-membered ring): 99%

SMILES: COC(=O)[C@@H]1CCCCn2cc(nn2)CCCC(=O)NCCC[C@H](NC(=O)OC(C)(C)C)C(=O)N1 [Boc-Orn(5-hexynoyl)-Lys(N3)-OMe]
- ring closure, yield over several steps (from C#CCCCC(=O)NCCC[C@H](NC(=O)OC(C)(C)C)C(=O)N[C@@H](CCCCN=[N+]=[N-])C(=O)OC, 19-membered ring): 99%

SMILES: COC(=O)[C@@H]1CNC(=O)[C@H](Cc2ccccc2)n2cc(nn2)CNC(=O)NCCC[C@H](NC(=O)OC(C)(C)C)C(=O)N1 [Boc-Orn(CONH-propargyl)-Dap(N3-Phe)-OMe]
- ring closure, yield over several steps (from C#CCNC(=O)NCCC[C@H](NC(=O)OC(C)(C)C)C(=O)N[C@@H](CNC(=O)[C@H](Cc1ccccc1)N=[N+]=[N-])C(=O)OC, 18-membered ring): 96%

SMILES: COC(=O)[C@@H]1CNC(=O)[C@H](Cc2ccccc2)n2cc(nn2)CNC(=O)NC[C@H](NC(=O)OC(C)(C)C)C(=O)N1 [Boc-Dap(CONH-propargyl)-Dap(N3-Phe)-OMe]
- ring closure, yield over several steps (from C#CCNC(=O)NC[C@H](NC(=O)OC(C)(C)C)C(=O)N[C@@H](CNC(=O)[C@H](Cc1ccccc1)N=[N+]=[N-])C(=O)OC, 16-membered ring): 99%

SMILES: COC(=O)[C@@H]1CCCCn2cc(nn2)CCCC(=O)NCCCC[C@H](NC(=O)OC(C)(C)C)C(=O)N1 [Boc-Lys(5-hexynoyl)-Lys(N3)-OMe]
- ring closure, yield over several steps (from C#CCCCC(=O)NCCCC[C@H](NC(=O)OC(C)(C)C)C(=O)N[C@@H](CCCCN=[N+]=[N-])C(=O)OC, 20-membered ring): 98%

SMILES: COC(=O)[C@@H]1CCCCNC(=O)[C@H](Cc2ccccc2)n2cc(nn2)CNC(=O)NCC[C@H](NC(=O)OC(C)(C)C)C(=O)N1 [Boc-Dab(CONH-propargyl)-Lys(N3-Phe)-OMe]
- ring closure, yield over several steps (from C#CCNC(=O)NCC[C@H](NC(=O)OC(C)(C)C)C(=O)N[C@@H](CCCCNC(=O)[C@H](Cc1ccccc1)N=[N+]=[N-])C(=O)OC, 20-membered ring): 80%

SMILES: COC(=O)[C@@H]1CNC(=O)[C@H](Cc2ccccc2)n2cc(nn2)CCCC(=O)NCCCC[C@H](NC(=O)OC(C)(C)C)C(=O)N1 [Boc-Lys(5-hexynoyl)-Dap(N3-Phe)-OMe]
- ring closure, yield over several steps (from C#CCCCC(=O)NCCCC[C@H](NC(=O)OC(C)(C)C)C(=O)N[C@@H](CNC(=O)[C@H](Cc1ccccc1)N=[N+]=[N-])C(=O)OC, 20-membered ring): 61%

SMILES: COC(=O)[C@@H]1CCCCn2cc(nn2)CNC(=O)NCC[C@H](NC(=O)OC(C)(C)C)C(=O)N1 [Boc-Dab(CONH-propargyl)-Lys(N3)-OMe]
- ring closure, yield over several steps (from C#CCNC(=O)NCC[C@H](NC(=O)OC(C)(C)C)C(=O)N[C@@H](CCCCN=[N+]=[N-])C(=O)OC, 17-membered ring): 99%

SMILES: COC(=O)[C@@H]1CCCn2cc(nn2)CCC(=O)NCC[C@H](NC(=O)OC(C)(C)C)C(=O)N1 [Boc-Dab(4-pentynoyl)-Orn(N3)-OMe]
- ring closure, yield over several steps (from C#CCCC(=O)NCC[C@H](NC(=O)OC(C)(C)C)C(=O)N[C@@H](CCCN=[N+]=[N-])C(=O)OC, 16-membered ring): 99%

SMILES: COC(=O)[C@@H]1CCCn2cc(nn2)CCCC(=O)NCCC[C@H](NC(=O)OC(C)(C)C)C(=O)N1 [Boc-Orn(5-hexynoyl)-Orn(N3)-OMe]
- ring closure, yield over several steps (from C#CCCCC(=O)NCCC[C@H](NC(=O)OC(C)(C)C)C(=O)N[C@@H](CCCN=[N+]=[N-])C(=O)OC, 18-membered ring): 71%

SMILES: COC(=O)[C@@H]1CNC(=O)[C@H](Cc2ccccc2)n2cc(nn2)CCC(=O)NC[C@H](NC(=O)OC(C)(C)C)C(=O)N1 [Boc-Dap(4-pentynoyl)-Dap(N3-Phe)-OMe]
- ring closure, yield over several steps (from C#CCCC(=O)NC[C@H](NC(=O)OC(C)(C)C)C(=O)N[C@@H](CNC(=O)[C@H](Cc1ccccc1)N=[N+]=[N-])C(=O)OC, 16-membered ring): 83%

SMILES: COC(=O)[C@@H]1CCCn2cc(nn2)CCCC(=O)NCC[C@H](NC(=O)OC(C)(C)C)C(=O)N1 [Boc-Dab(5-hexynoyl)-Orn(N3)-OMe]
- ring closure, yield over several steps (from C#CCCCC(=O)NCC[C@H](NC(=O)OC(C)(C)C)C(=O)N[C@@H](CCCN=[N+]=[N-])C(=O)OC, 17-membered ring): 60%

SMILES: COC(=O)[C@@H]1CCCCNC(=O)[C@H](Cc2ccccc2)n2cc(nn2)CNC(=O)NCCCC[C@H](NC(=O)OC(C)(C)C)C(=O)N1 [Boc-Lys(CONH-propargyl)-Lys(N3-Phe)-OMe]
- ring closure, yield over several steps (from C#CCNC(=O)NCCCC[C@H](NC(=O)OC(C)(C)C)C(=O)N[C@@H](CCCCNC(=O)[C@H](Cc1ccccc1)N=[N+]=[N-])C(=O)OC, 22-membered ring): 99%

SMILES: COC(=O)[C@@H]1CCCCNC(=O)[C@H](Cc2ccccc2)n2cc(nn2)CNC(=O)NC[C@H](NC(=O)OC(C)(C)C)C(=O)N1 [Boc-Dap(CONH-propargyl)-Lys(N3-Phe)-OMe]
- ring closure, yield over several steps (from C#CCNC(=O)NC[C@H](NC(=O)OC(C)(C)C)C(=O)N[C@@H](CCCCNC(=O)[C@H](Cc1ccccc1)N=[N+]=[N-])C(=O)OC, 19-membered ring): 99%

SMILES: COC(=O)[C@@H]1CCCn2cc(nn2)CCC(=O)NC[C@H](NC(=O)OC(C)(C)C)C(=O)N1 [Boc-Dap(4-pentynoyl)-Orn(N3)-OMe]
- ring closure, yield over several steps (from C#CCCC(=O)NC[C@H](NC(=O)OC(C)(C)C)C(=O)N[C@@H](CCCN=[N+]=[N-])C(=O)OC, 15-membered ring): 53%

SMILES: COC(=O)[C@@H]1CCCCn2cc(nn2)CCC(=O)NC[C@H](NC(=O)OC(C)(C)C)C(=O)N1 [Boc-Dap(4-pentynoyl)-Lys(N3)-OMe]
- ring closure, yield over several steps (from C#CCCC(=O)NC[C@H](NC(=O)OC(C)(C)C)C(=O)N[C@@H](CCCCN=[N+]=[N-])C(=O)OC, 16-membered ring): 59%

SMILES: COC(=O)[C@@H]1CCCCNC(=O)[C@H](Cc2ccccc2)n2cc(nn2)CCC(=O)NC[C@H](NC(=O)OC(C)(C)C)C(=O)N1 [Boc-Dap(4-pentynoyl)-Lys(N3-Phe)-OMe]
- ring closure, yield over several steps (from C#CCCC(=O)NC[C@H](NC(=O)OC(C)(C)C)C(=O)N[C@@H](CCCCNC(=O)[C@H](Cc1ccccc1)N=[N+]=[N-])C(=O)OC, 19-membered ring): 99%

SMILES: COC(=O)[C@@H]1CNC(=O)[C@H](Cc2ccccc2)n2cc(nn2)CNC(=O)NCCCC[C@H](NC(=O)OC(C)(C)C)C(=O)N1 [Boc-Lys(CONH-propargyl)-Dap(N3-Phe)-OMe]
- ring closure, yield over several steps (from C#CCNC(=O)NCCCC[C@H](NC(=O)OC(C)(C)C)C(=O)N[C@@H](CNC(=O)[C@H](Cc1ccccc1)N=[N+]=[N-])C(=O)OC, 19-membered ring): 70%

SMILES: COC(=O)[C@@H]1CNC(=O)[C@H](Cc2ccccc2)n2cc(nn2)CCC(=O)NCCC[C@H](NC(=O)OC(C)(C)C)C(=O)N1 [Boc-Orn(4-pentynoyl)-Dap(N3-Phe)-OMe]
- ring closure, yield over several steps (from C#CCCC(=O)NCCC[C@H](NC(=O)OC(C)(C)C)C(=O)N[C@@H](CNC(=O)[C@H](Cc1ccccc1)N=[N+]=[N-])C(=O)OC, 18-membered ring): 45%

SMILES: COC(=O)[C@@H]1CNC(=O)[C@H](Cc2ccccc2)n2cc(nn2)CCCC(=O)NC[C@H](NC(=O)OC(C)(C)C)C(=O)N1 [Boc-Dap(5-hexynoyl)-Dap(N3-Phe)-OMe]
- ring closure, yield over several steps (from C#CCCCC(=O)NC[C@H](NC(=O)OC(C)(C)C)C(=O)N[C@@H](CNC(=O)[C@H](Cc1ccccc1)N=[N+]=[N-])C(=O)OC, 17-membered ring): 99%
